Data reported in the CheMixHub viscosity set.
± gives the uncertainty stated by the source.

Test: xn = mol fraction of the nth substance listed

CC(CC(C)(C)C)CP(=O)(O)CC(C)CC(C)(C)C (stereo not given) + ClC(Cl)(Cl)Cl
298.15 K, 101 kPa
Conditions	viscosity [mPa·s]
x1 = 0.0063	0.961 ± 0.011
x1 = 0.0131	1.04 ± 0.012
x1 = 0.0159	1.076 ± 0.012
x2 = 0.1192	98.3 ± 1.5
x2 = 0.201	83.19 ± 1.1
x2 = 0.3155	66.36 ± 0.79
x2 = 0.5037	36.06 ± 0.41
x2 = 0.6763	19.27 ± 0.21
x2 = 0.7689	12.88 ± 0.14
x2 = 0.7808	11.73 ± 0.13
x2 = 0.8099	9.498 ± 0.11
x2 = 0.86	5.932 ± 0.067
x2 = 0.8741	4.951 ± 0.056
x2 = 0.9286	2.263 ± 0.026
x2 = 0.9325	2.124 ± 0.024
x2 = 0.9717	1.255 ± 0.014

CNC(C)=O + CC(C)(C)O
303.15 K, 101 kPa
Conditions	viscosity [mPa·s]
x1 = 0.0809	4.253 ± 0.11
x1 = 0.1017	4.365 ± 0.12
x1 = 0.2071	4.448 ± 0.12
x1 = 0.3102	4.22 ± 0.11
x1 = 0.4103	4.026 ± 0.11
x1 = 0.5002	3.864 ± 0.1
x1 = 0.6021	3.776 ± 0.1
x1 = 0.7095	3.752 ± 0.1
x1 = 0.8039	3.747 ± 0.1
x1 = 0.9007	3.778 ± 0.1

CC(C)CCO + C1COCO1
viscosity [mPa·s], 101 kPa
Conditions	x2 = 0.1168	x2 = 0.2293	x2 = 0.3377	x2 = 0.4424	x2 = 0.5434	x2 = 0.6409	x2 = 0.7352	x2 = 0.8264	x2 = 0.9146
298.15 K	3.017 ± 0.066	2.523 ± 0.064	2.174 ± 0.063	1.884 ± 0.062	1.366 ± 0.061	0.9079 ± 0.06	0.8074 ± 0.06	0.7367 ± 0.06	0.6474 ± 0.06
303.15 K	2.3 ± 0.025	1.806 ± 0.023	1.458 ± 0.022	1.167 ± 0.021	0.9949 ± 0.021	0.8818 ± 0.021	0.7812 ± 0.021	0.7104 ± 0.021	0.6212 ± 0.02

CCOCCO + Cc1cccc(C)c1
viscosity [mPa·s], 101 kPa
Conditions	298.15 K	308.15 K
x1 = 0.0531	0.608 ± 0.011	0.521 ± 0.01
x1 = 0.1513	0.663 ± 0.012	0.566 ± 0.01
x1 = 0.2482	0.727 ± 0.013	0.618 ± 0.011
x1 = 0.3528	0.809 ± 0.014	0.682 ± 0.012
x1 = 0.4512	0.9 ± 0.015	0.752 ± 0.013
x1 = 0.5053	0.957 ± 0.016	0.795 ± 0.014
x1 = 0.5473	1.006 ± 0.017	0.831 ± 0.014
x1 = 0.6494	1.14 ± 0.019	0.928 ± 0.016
x1 = 0.751	1.3 ± 0.021	1.04 ± 0.018
x1 = 0.8492	1.487 ± 0.024	1.168 ± 0.02
x1 = 0.9554	1.731 ± 0.028	1.33 ± 0.022

CCCCCCCCCCOC(C)=O + CCCCCC
303.15 K, 101.3 kPa
Conditions	viscosity [mPa·s]
x1 = 0.2001	0.4713 ± 0.0034
x1 = 0.4057	0.7528 ± 0.0053
x1 = 0.5086	0.9289 ± 0.0065
x1 = 0.5995	1.116 ± 0.0079
x1 = 0.7551	1.473 ± 0.011

CCOCCO + NC=O
101 kPa
Conditions	viscosity [mPa·s]
303 K, x2 = 0.1539	2.222 ± 0.35
303 K, x2 = 0.3334	2.676 ± 0.39
303 K, x2 = 0.4617	2.99 ± 0.42
303 K, x2 = 0.5714	3.203 ± 0.44
303 K, x2 = 0.6669	3.477 ± 0.47
303 K, x2 = 0.7501	3.576 ± 0.48
303 K, x2 = 0.8235	3.446 ± 0.47
303 K, x2 = 0.8889	3.199 ± 0.44
303 K, x2 = 0.9474	3.008 ± 0.42
303.15 K, x2 = 0.8063	3.495 ± 0.052
313 K, x2 = 0.1539	1.769 ± 0.3
313 K, x2 = 0.3334	2.075 ± 0.33
313 K, x2 = 0.4617	2.139 ± 0.34
313 K, x2 = 0.5714	2.481 ± 0.37
313 K, x2 = 0.6669	2.647 ± 0.39
313 K, x2 = 0.7501	2.752 ± 0.4
313 K, x2 = 0.8235	2.588 ± 0.38
313 K, x2 = 0.8889	2.513 ± 0.38
323.15 K, x2 = 0.2009	1.415 ± 0.022
